Where “and” joins values, the source holds several entries; their conditions need not be identical. Equal entries are not always repeated. Inconclusive results and toxic doses are left out. Cut-off read from the data, not from the text of the source: active = T/C of 150% or more; inactive = T/C below 125%.
System: L1210 leukemia ip in BDF1 mice, survival T/C
Test: NCI In Vivo Anticancer Drug Screen. Data for tumor model L1210 Leukemia (intraperitoneal) in B6D2F1 (BDF1) mice
Details: endpoint: mean survival time, higher = longer survival
How it was run: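 Ratio derived from survival: compound-dosed mice over vehicle-dosed mice, all bearing a transplantable tumor.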

[1] = dose: 50.0 mg/kg/injection, schedule: Q01DX009 (ip), vehicle: saline
[2] = dose: 100.0 mg/kg/injection, schedule: Q01DX009 (ip), vehicle: saline
[3] = dose: 100.0 mg/kg/injection, schedule: Q04DX003 (ip), vehicle: saline
[4] = dose: 200.0 mg/kg/injection, schedule: Q04DX003 (ip), vehicle: saline
[5] = dose: 400.0 mg/kg/injection, schedule: Q04DX003 (ip), vehicle: saline
[6] = dose: 25.0 mg/kg/injection, schedule: Q01DX009 (ip), vehicle: saline
[7] = dose: 100.0 mg/kg/injection, schedule: Q01DX001 (ip), vehicle: saline
[8] = dose: 200.0 mg/kg/injection, schedule: Q01DX001 (ip), vehicle: saline
[9] = dose: 100.0 mg/kg/injection, schedule: Q04DX003 (ip), vehicle: saline with Tween-80
[10] = dose: 100.0 mg/kg/injection, schedule: Q01DX009 (ip), vehicle: Klucel (hydroxypropylcellulose) (HPC)
[11] = dose: 200.0 mg/kg/injection, schedule: Q01DX009 (ip), vehicle: Klucel (hydroxypropylcellulose) (HPC)
[12] = dose: 400.0 mg/kg/injection, schedule: Q01DX009 (ip), vehicle: Klucel (hydroxypropylcellulose) (HPC)
[13] = dose: 6.25 mg/kg/injection, schedule: Q01DX009 (ip), vehicle: Klucel (hydroxypropylcellulose) (HPC)
[14] = dose: 12.5 mg/kg/injection, schedule: Q01DX009 (ip), vehicle: Klucel (hydroxypropylcellulose) (HPC)
[15] = dose: 25.0 mg/kg/injection, schedule: Q01DX009 (ip), vehicle: Klucel (hydroxypropylcellulose) (HPC)
[16] = dose: 50.0 mg/kg/injection, schedule: Q01DX009 (ip), vehicle: Klucel (hydroxypropylcellulose) (HPC)
[17] = dose: 200.0 mg/kg/injection, schedule: Q04DX003 (ip), vehicle: saline with Tween-80
[18] = dose: 400.0 mg/kg/injection, schedule: Q04DX003 (ip), vehicle: saline with Tween-80
[19] = dose: 400.0 mg/kg/injection, schedule: Q01DX001 (ip), vehicle: saline
[20] = dose: 100.0 mg/kg/injection, schedule: Q04DX003 (ip), vehicle: Klucel (hydroxypropylcellulose) (HPC)
[21] = dose: 200.0 mg/kg/injection, schedule: Q04DX003 (ip), vehicle: Klucel (hydroxypropylcellulose) (HPC)
[22] = dose: 400.0 mg/kg/injection, schedule: Q04DX003 (ip), vehicle: Klucel (hydroxypropylcellulose) (HPC)
[23] = dose: 100.0 mg/kg/injection, schedule: Q01DX009 (ip), vehicle: saline with Tween-80
[24] = dose: 200.0 mg/kg/injection, schedule: Q01DX009 (ip), vehicle: saline with Tween-80
[25] = dose: 400.0 mg/kg/injection, schedule: Q01DX009 (ip), vehicle: saline with Tween-80

Measured: T/C

O=C1CC(=O)Nc2ccccc2N1
inactive: [1] 86 % of control | [2] 86 % of control | [3] 98 % of control | dose: 200.0 mg/kg/injection, schedule: Q01DX009 (ip), vehicle: saline 96 % of control | [4] 101 % of control | [5] 101 % of control

[Cl][Sn]([Cl])([c]1ccccc1)[c]1ccccc1.c1ccncc1
inactive: [6] 111 % of control | [1] 114 % of control | [2] 96 % of control

CC(=O)Oc1ccc2ncccc2c1Cc1c(OC(C)=O)ccc2ncccc12
inactive: dose: 75.0 mg/kg/injection, schedule: Q04DX003 (ip), vehicle: saline 91 % of control | dose: 150.0 mg/kg/injection, schedule: Q04DX003 (ip), vehicle: saline 95 % of control | dose: 300.0 mg/kg/injection, schedule: Q04DX003 (ip), vehicle: saline 95 % of control

CNNc1cc(CO)cnc1SC
inactive: [7] 105 % of control | [8] 104 % of control

NC1=NCCCN1
inactive: [9] 101 % of control

CN(C/C=C/CN(C)P(=O)(N1CC1)N1CC1)P(=O)(N1CC1)N1CC1
inactive: dose: 6.25 mg/kg/injection, schedule: Q01DX009 (ip), vehicle: saline 107 % of control

O=C(O)/C=C/C(=O)NCCc1ccccc1
inactive: [10] 91 % of control | [11] 102 % of control | [12] 96 % of control

COc1cc(C(=O)NNC(=O)C(=O)NNC(=O)c2cc(OC)c(OC)c(OC)c2)cc(OC)c1OC
inactive: [13] 95 % of control | [14] 96 % of control and 101 % of control | [15] 102 % of control | [16] 92 % of control and 98 % of control and 101 % of control | [10] 86 % of control

Clc1cc(Cl)c(OCC#CI)c(Cl)c1Cl
inactive: [13] 100 % of control | [14] 97 % of control | [15] 92 % of control | [16] 96 % of control | dose: 75.0 mg/kg/injection, schedule: Q01DX009 (ip), vehicle: Klucel (hydroxypropylcellulose) (HPC) 98 % of control | dose: 115.0 mg/kg/injection, schedule: Q01DX009 (ip), vehicle: Klucel (hydroxypropylcellulose) (HPC) 94 % of control | dose: 170.0 mg/kg/injection, schedule: Q01DX009 (ip), vehicle: Klucel (hydroxypropylcellulose) (HPC) 93 % of control

O=C1CC(N2C(=O)C3C4CCC(O4)C3C2=O)C(=O)N1 (configuration not stated)
inactive: [9] 100 % of control | [17] 108 % of control | [18] 104 % of control

Cc1cc(N=O)c(NO)cc1C
inactive: [10] 108 % of control | [11] 103 % of control | [12] 118 % of control

CCCCCCCCN(CCCCCCCC)CC(O)c1ccc2cc(Br)c3ccccc3c2c1 (configuration not stated)
inactive: dose: 100.0 mg/kg/injection, schedule: Q04DX003 (ip), vehicle: acetone 113 % of control | dose: 200.0 mg/kg/injection, schedule: Q04DX003 (ip), vehicle: acetone 120 % of control | dose: 400.0 mg/kg/injection, schedule: Q04DX003 (ip), vehicle: acetone 103 % of control

COc1ccc2c(c1)C13CCN(C)C(C2)C1CCC1(C3)OCCO1 (configuration not stated)
inactive: dose: 12.5 mg/kg/injection, schedule: Q01DX009 (ip), vehicle: saline 103 % of control | [6] 94 % of control | [1] 97 % of control | [7] 109 % of control | [10] 106 % of control | [3] 105 % of control | [8] 101 % of control | [4] 86 % of control | [19] 95 % of control

O=C(O)CC1CCN(C(=O)c2ccccc2)C(Cc2c[nH]c3ccccc23)C1O (configuration not stated)
inactive: [7] 97 % of control | [8] 101 % of control | [19] 92 % of control

O=C(O)c1cccc(C(=O)c2ccc([N+](=O)[O-])cc2)c1
inactive: [7] 97 % of control | [3] 90 % of control | [8] 99 % of control | [4] 102 % of control | [19] 96 % of control | [5] 90 % of control

C=C(CC)C(=O)OCC
inactive: [3] 105 % of control | [4] 94 % of control | [5] 96 % of control

O=S(=O)(F)c1ccc(Cl)cc1CBr
inactive: dose: 100.0 mg/kg/injection, schedule: Q04DX002 (ip), vehicle: saline with Tween-80 107 % of control | dose: 200.0 mg/kg/injection, schedule: Q04DX002 (ip), vehicle: saline with Tween-80 101 % of control | dose: 400.0 mg/kg/injection, schedule: Q04DX002 (ip), vehicle: saline with Tween-80 92 % of control

CCCCN1C(=O)C2CC=C3C=CN4C(C3C2C1=O)C1C(=O)N(CCCC)C(=O)C1C41CC(=O)N(CCCC)C1=O (configuration not stated)
inactive: [14] 101 % of control | [15] 104 % of control | [16] 91 % of control | [10] 86 % of control | [20] 89 % of control | [11] 91 % of control | [21] 90 % of control | [22] 92 % of control

COc1ccc2c3c1OC1C(=O)CCC4C(C2)N(C)CCC314 (configuration not stated)
inactive: dose: 75.0 mg/kg/injection, schedule: Q01DX001 (ip), vehicle: saline 94 % of control

CCC[As](=O)(O)C(C)C
inactive: [3] 97 % of control

O=C(CCCC(=O)N/N=C/c1ccc([N+](=O)[O-])cc1)N/N=C\c1ccc([N+](=O)[O-])cc1
inactive: dose: 50.0 mg/kg/injection, schedule: Q01DX001 (ip), vehicle: saline 93 % of control | [7] 100 % of control | [8] 103 % of control | [19] 103 % of control

c1ccc(CNCC2c3[nH]c4ccccc4c3CN2C2CCCCC2)cc1 (configuration not stated)
inactive: dose: 75.0 mg/kg/injection, schedule: Q01DX001 (ip), vehicle: carboxymethylcellulose (CMC) 102 % of control | dose: 150.0 mg/kg/injection, schedule: Q01DX001 (ip), vehicle: carboxymethylcellulose (CMC) 90 % of control | dose: 300.0 mg/kg/injection, schedule: Q01DX001 (ip), vehicle: carboxymethylcellulose (CMC) 91 % of control

CC(C)(C)N1OC1c1cccc(Cl)c1 (configuration not stated)
inactive: dose: 100.0 mg/kg/injection, schedule: Q01DX001 (ip), vehicle: other 95 % of control | [20] 98 % of control | dose: 200.0 mg/kg/injection, schedule: Q01DX001 (ip), vehicle: other 94 % of control | [21] 93 % of control | dose: 400.0 mg/kg/injection, schedule: Q01DX001 (ip), vehicle: other 97 % of control | [22] 101 % of control

Cc1ccc(S(=O)(=O)NCCC(=N)N)cc1
inactive: [7] 93 % of control | [8] 101 % of control

O=C(c1ccccc1)c1ccc2ccc(F)cc2c1C(=O)O
inactive: [23] 113 % of control | dose: 100.0 mg/kg/injection, schedule: Q04DX003 (ip), vehicle: other 95 % of control | [24] 113 % of control | dose: 200.0 mg/kg/injection, schedule: Q04DX003 (ip), vehicle: other 103 % of control | [25] 107 % of control | dose: 400.0 mg/kg/injection, schedule: Q04DX003 (ip), vehicle: other 101 % of control

Cc1nccn1-c1ccc(N=Cc2ccc(N(CCCl)CCCl)cc2Cl)cc1
inactive: dose: 62.5 mg/kg/injection, schedule: Q04DX002 (ip), vehicle: Klucel (hydroxypropylcellulose) (HPC) 102 % of control | dose: 125.0 mg/kg/injection, schedule: Q04DX002 (ip), vehicle: Klucel (hydroxypropylcellulose) (HPC) 98 % of control | dose: 250.0 mg/kg/injection, schedule: Q04DX002 (ip), vehicle: Klucel (hydroxypropylcellulose) (HPC) 106 % of control

CN(C)c1ccc(C=Nc2cccc(Cl)c2)cc1
inactive: [20] 91 % of control | [21] 93 % of control | [22] 91 % of control

Oc1c(I)cc(I)c2cccnc12
inactive: dose: 100.0 mg/kg/injection, schedule: Q01DX001 (ip), vehicle: Klucel (hydroxypropylcellulose) (HPC) 102 % of control | dose: 200.0 mg/kg/injection, schedule: Q01DX001 (ip), vehicle: Klucel (hydroxypropylcellulose) (HPC) 106 % of control

CCOc1nc(S(=O)(=O)CC)ncc1C
inactive: [23] 109 % of control | [9] 105 % of control | [24] 104 % of control | [17] 100 % of control | [25] 87 % of control | [18] 103 % of control

O=C1OC(c2ccccc2)CC12CCCCC2 (configuration not stated)
inactive: [20] 102 % of control | [21] 100 % of control | [22] 100 % of control

From PubChem BioAssay AID248 (DTP/NCI, 2004)
